Results published in article PMC6458995, “MAP4K4 Inhibition Promotes Survival of Human Stem Cell-Derived Cardiomyocytes and Reduces Infarct Size In Vivo” (Cell Stem Cell, 2019).

Experiments:
[1] = system: iCell cardiomyocytes; assay: Human cardiac muscle cell death, DRAQ7 uptake (high-content); format: cell-based; conditions: H2O2, micromolar concentrations
Description: iCell cardiomyocytes were thawed, transferred to Plating Medium, counted using a Vi-CELL XR cell viability analyzer (Beckman Coulter), and seeded into 24-well plates for RNA collection (60,000 cells well^-1; Greiner) or μClear half-area 96-well plates for gene silencing (10,000 cells well^-1; Greiner). Plates were coated with 10 μg ml^-1 collagen type I (BD Biosciences). Cells were cultured in iCell Cardiomyocytes Plating Medium for 2 d and in Maintenance Medium thereafter. For compound dose-response comparisons, the cells were deposited in Plating Medium at 10,000 cells well^-1 in 0.1% (w/v) gelatin-coated 384-well white Greiner plates and were cultured as above for 8 d before treatment. […]
To measure loss of membrane integrity, iCell hiPSC-CMs were co-stained for 15 min at 37°C with 0.3 μM DRAQ7 (Biostatus), a cell-impermeable dye, and with 0.8 μM Hoescht 33342 (Molecular Probes), as the membrane-permeable dye. Dyes were removed and the nuclear fluorescence scored (typically, 15,000-20,000 cells well^-1) using a Cellomics ArrayScan VTI High Content Screening platform. The line harbors a cardiomyocyte-specific Myh6-driven reporter gene for monomeric red fluorescent protein (RFP), enabling cell death to be scored exclusively in the myocyte population. Successfully transduced cells were identified on the basis of TurboGFP fluorescence. […]

[2] = system: NUAK; assay: HTRF Transcreener ADP kinase assay; format: biochemical, human
[3] = system: vCor.4U hiPSC-CMs; assay: Calcium transients (FLIPR Tetra, EarlyTox Cardiotoxicity dye); format: cell-based, human
Description: Calcium transients in hiPSC-CMs were assessed using FLIPR Tetra instrumentation and Early Tox Cardiotoxicity kits (Molecular Devices). vCor.4U cells were subjected to graded concentrations of menadione and the MAP4K4 inhibitors as described for the viability assays. Compound concentrations and time course are denoted in the figure and figure legend. Vehicle controls were used throughout. Cells were incubated for 2-3 hr at 37°C in 5% CO2, using 3 μL well^-1 of EarlyTox Cardiotoxicity Kit concentrate as the fluorescent calcium indicator dye. Plates were then removed from the incubator and allowed to reach room temperature. Intracellular calcium oscillations were monitored using a FLIPR Tetra system with excitation LED bank 470-495 nm and emission filter set 515-575 nm (Molecular Devices). Fluorescence intensity signals were acquired for 600 reads at 1.2 ms intervals. Beat frequency, median peak height, median peak width and total peak area were calculated and compared with the baseline control and with menadione alone. Protection of calcium cycling by DMX-4804 was confirmed in 3 independent experiments with overlapping conditions, and results are shown for a full dose-response study, analyzing 4 wells for each point.

[4] = system: vCor.4U cells; assay: Mitochondrial function (Seahorse XFe24, OCR and ECAR); format: cell-based, human; conditions: menadione 15 μM, 2 h
Description: Mitochondrial function in hiPSC-CMs was determined using a Seahorse XFe24 Analyzer. vCor.4U cells (60,000 well^-1) were transferred to 0.1% gelatin-coated XF24 plates and maintained for 5 d, as described above. On day 6, DMX-5804 was added 45 min prior to challenge with menadione for 2 h. The medium was replaced 1 hr before the assay, using bicarbonate-free Seahorse assay medium (8.3 g L^-1 DMEM Base (Sigma-Aldrich), 10 mM glucose, 2 mM L-alanyl-L-glutamine dipeptide (Glutamax-1, GIBCO), 1 mM sodium pyruvate (GIBCO), pH 7.4). Cells were maintained at 37°C without supplemental CO2 starting 1 hr before the assay (IL10 incubator, VWR). For each state measured, three assay cycles were performed (4 min mixing, 2 min wait, and 2 min measurement periods, with readings every 15 s). The basal oxygen consumption rate (OCR) and extracellular acidification rate (ECAR) were determined, followed by sequential injection of 1 μM oligomycin A (Abcam) to inhibit ATP synthase, 0.5 μM […] (FCCP; Abcam) to uncouple oxidative phosphorylation, and 1 μM antimycin A/rotenone (Sigma, Abcam) to inhibit mitochondrial complex III and I. For each condition, 12 wells were tested, comprising 4 independent experiments.

[5] = biological target: T1, hCaV1.2 (Homo sapiens, UniProt Q13936); assay: Ion channel safety screening (Patchliner whole-cell patch clamp); format: cell-based
T1 construct: HEK293 cells stably expressing full length hCaV1.2; host or cells: HEK293
Description: (§1) Electrophysiological recordings (Apconix) were performed using a Chinese Hamster Ovary cell line stably expressing full length hERG or hNaV1.5, or HEK293 cells stably expressing full length hCaV1.2. Single cell currents were measured in whole-cell configuration at 21-23°C using a Patchliner (Nanion Technologies). The internal solution for hERG contained (mM): 120 KF, 20 KCl, 10EGTA, 10 HEPES (pH 7.3). The internal solution for hNaV1.5 and CaV1.2 contained (mM): 140 CsF, 1 EGTA, 10 NaCl, 10 HEPES (pH 7.3). […] Late Na^+ currents were activated with 50 μM veratridine. Cells were clamped at a holding potential of −80 mV before a depolarising step appropriate for each channel. Currents measured from the step were referenced to the holding current. Compounds were then incubated for 2-3 min prior to a second measurement using an identical pulse train.

[6] = biological target: T2, hERG (Homo sapiens, UniProt Q12809); assay: as above; format: cell-based
T2 construct: stably expressing full length hERG; host or cells: Chinese Hamster Ovary cell line
Description: as §1

[7] = biological target: T3, hNaV1.5 (Homo sapiens, UniProt Q14524); assay: as above; format: cell-based
T3 construct: stably expressing full length hERG or hNaV1.5; host or cells: Chinese Hamster Ovary cell line
Description: as §1

[8] = system: VEGFR; assay: HTRF Transcreener ADP kinase assay; format: biochemical, human

T2 sequence (Q12809 whole entry): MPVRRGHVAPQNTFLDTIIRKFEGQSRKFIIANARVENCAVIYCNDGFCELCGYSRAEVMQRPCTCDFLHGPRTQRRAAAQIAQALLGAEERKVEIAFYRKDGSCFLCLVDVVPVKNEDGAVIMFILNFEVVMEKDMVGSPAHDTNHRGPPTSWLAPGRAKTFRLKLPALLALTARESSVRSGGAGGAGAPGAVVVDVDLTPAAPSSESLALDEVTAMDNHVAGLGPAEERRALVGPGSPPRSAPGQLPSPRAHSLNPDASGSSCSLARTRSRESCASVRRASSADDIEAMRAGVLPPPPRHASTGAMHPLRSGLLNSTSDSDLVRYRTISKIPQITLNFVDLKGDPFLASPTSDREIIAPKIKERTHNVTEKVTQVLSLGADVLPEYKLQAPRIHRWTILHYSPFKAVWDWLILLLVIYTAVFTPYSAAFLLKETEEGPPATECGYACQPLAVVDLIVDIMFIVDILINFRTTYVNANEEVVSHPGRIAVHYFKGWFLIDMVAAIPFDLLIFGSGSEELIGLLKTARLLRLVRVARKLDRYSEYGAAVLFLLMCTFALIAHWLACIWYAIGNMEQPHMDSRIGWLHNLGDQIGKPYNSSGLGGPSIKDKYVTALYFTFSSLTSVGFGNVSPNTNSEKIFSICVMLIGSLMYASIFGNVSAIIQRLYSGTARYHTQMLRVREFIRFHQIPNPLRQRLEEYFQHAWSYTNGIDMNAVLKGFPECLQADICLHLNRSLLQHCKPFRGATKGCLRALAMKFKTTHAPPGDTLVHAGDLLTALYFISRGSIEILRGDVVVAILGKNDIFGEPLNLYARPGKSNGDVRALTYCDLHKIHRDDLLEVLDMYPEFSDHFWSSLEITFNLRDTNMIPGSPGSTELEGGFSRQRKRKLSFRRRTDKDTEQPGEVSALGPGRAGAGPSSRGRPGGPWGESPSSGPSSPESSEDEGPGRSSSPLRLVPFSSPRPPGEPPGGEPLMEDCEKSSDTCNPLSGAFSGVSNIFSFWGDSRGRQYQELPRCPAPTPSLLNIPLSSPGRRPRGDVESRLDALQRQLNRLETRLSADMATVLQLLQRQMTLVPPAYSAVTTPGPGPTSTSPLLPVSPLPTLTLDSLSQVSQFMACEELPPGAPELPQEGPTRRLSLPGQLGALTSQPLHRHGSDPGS
T3 sequence (Q14524 whole entry): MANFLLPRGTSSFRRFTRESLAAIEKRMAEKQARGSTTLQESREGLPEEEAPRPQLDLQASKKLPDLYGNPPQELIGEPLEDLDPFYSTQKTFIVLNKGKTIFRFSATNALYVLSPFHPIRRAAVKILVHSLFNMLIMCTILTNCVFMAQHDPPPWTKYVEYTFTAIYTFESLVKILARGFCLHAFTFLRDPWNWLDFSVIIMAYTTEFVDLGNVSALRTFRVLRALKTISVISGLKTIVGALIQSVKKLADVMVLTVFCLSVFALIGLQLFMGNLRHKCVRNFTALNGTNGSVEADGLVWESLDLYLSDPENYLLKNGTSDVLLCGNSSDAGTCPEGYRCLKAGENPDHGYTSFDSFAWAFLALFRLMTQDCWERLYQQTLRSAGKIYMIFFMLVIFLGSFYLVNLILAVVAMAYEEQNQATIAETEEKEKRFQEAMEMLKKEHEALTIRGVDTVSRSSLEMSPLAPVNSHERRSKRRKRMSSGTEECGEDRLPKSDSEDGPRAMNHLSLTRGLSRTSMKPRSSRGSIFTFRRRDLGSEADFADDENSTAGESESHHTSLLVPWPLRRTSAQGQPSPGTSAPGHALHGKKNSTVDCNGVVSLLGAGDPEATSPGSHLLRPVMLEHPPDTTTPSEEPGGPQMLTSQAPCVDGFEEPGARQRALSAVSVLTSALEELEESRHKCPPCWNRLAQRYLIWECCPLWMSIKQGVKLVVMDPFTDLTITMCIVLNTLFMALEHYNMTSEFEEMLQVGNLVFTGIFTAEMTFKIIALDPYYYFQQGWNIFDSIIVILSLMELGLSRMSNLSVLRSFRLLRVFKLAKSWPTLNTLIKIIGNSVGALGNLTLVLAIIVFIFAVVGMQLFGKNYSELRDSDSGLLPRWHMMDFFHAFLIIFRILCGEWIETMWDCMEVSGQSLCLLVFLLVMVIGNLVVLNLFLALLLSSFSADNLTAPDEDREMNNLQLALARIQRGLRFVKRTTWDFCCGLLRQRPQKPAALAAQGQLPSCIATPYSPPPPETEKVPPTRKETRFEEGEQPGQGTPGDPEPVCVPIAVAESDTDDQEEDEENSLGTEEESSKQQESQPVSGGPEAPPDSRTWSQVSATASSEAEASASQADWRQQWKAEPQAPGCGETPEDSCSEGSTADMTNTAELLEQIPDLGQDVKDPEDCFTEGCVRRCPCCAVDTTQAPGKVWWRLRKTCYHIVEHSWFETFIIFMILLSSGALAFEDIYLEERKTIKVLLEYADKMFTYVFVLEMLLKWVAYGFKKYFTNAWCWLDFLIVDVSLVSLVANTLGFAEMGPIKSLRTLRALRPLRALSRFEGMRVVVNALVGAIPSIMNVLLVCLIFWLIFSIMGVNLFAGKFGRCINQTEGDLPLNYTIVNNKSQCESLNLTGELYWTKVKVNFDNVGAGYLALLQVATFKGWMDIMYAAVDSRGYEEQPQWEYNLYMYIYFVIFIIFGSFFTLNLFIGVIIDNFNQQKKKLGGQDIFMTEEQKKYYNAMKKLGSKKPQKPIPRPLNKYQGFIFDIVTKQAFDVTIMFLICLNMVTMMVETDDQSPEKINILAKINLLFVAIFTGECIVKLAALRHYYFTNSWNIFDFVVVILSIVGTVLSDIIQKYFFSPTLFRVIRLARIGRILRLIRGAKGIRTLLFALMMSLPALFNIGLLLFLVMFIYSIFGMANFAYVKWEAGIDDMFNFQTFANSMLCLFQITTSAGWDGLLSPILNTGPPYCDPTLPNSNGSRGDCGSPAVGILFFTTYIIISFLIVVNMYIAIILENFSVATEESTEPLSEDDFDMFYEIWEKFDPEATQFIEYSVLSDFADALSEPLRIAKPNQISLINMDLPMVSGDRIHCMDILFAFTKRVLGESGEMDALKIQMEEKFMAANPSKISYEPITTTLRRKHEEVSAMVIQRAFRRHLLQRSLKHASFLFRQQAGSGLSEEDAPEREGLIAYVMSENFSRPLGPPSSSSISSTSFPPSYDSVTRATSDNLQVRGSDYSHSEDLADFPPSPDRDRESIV

| Structure (SMILES) | suppression of human cardiac muscle cell death (DRAQ7 uptake) [1] | Fold Selectivity ([2]; NUAK versus MAP4K4) | DMX-5804 vs F1386-0303 ([2]; ratio of fold selectivity, NUAK) | EC50 ([3]; Homo sapiens, calcium cycling, menadione, vCor.4U, read-out: concentration preserving ∼50% of peak area and peak height) [µM] | duration for which protection of calcium cycling was maintained ([3]; menadione present throughout) | spontaneous calcium cycling after hypoxia-reoxygenation ([3]; vCor.4U, 8 hr after hypoxia-reoxygenation, 10 μM) | effect on baseline calcium cycling ([3]; vCor.4U, no menadione) | extracellular acidification rate ([4]; 10 μM) | improvement of residual maximum oxidative capacity ([4]; 10 μM) [fold] | maximum oxidative capacity at lesser concentrations ([4]; below 10 μM) | off-target effect ([5]; cloned human hCaV1.2) | IC50 ([5]; hCaV1.2, HEK cells, 4-parameter logistic fit) [µM] | off-target effect ([6]; cloned human hERG) | IC50 ([6]; hERG, CHO cells, 4-parameter logistic fit) [µM] | off-target effect ([7]; cloned human hNaV1.5) | IC50 ([7]; hNaV1.5, CHO cells, 4-parameter logistic fit) [µM] | Fold Selectivity ([8]; VEGFR versus MAP4K4) | pIC50 ([8]; VEGFR, HTRF Transcreener ADP assay) | DMX-5804 vs F1386-0303 ([8]; ratio of fold selectivity, VEGFR) |
| --- | --- | --- | --- | --- | --- | --- | --- | --- | --- | --- | --- | --- | --- | --- | --- | --- | --- | --- | --- |
| Oc1ncnc2c1c(-c1ccccc1)cn2-c1ccccc1 [F1386-0303, 5,7-diphenyl-7H-pyrrolo[2,3-d]pyrimidin-4-ol] | highly protective | – | – | – | – | – | – | – | – | – | – | – | – | – | – | – | – | – | – |
| COCCOc1ccc(-c2cn(-c3ccccc3)c3nc[nH]c(=O)c23)cc1 [DMX-5804, 5-[4-(2-methoxy-ethoxy)-phenyl]-7-phenyl-3,7-dihydro-pyrrolo[2,3-d]pyrimidin-4-one] | – | 47 | 2.35 | 0.5 to 2 | up to 96 h | protection was conferred | no effect | partially rescued | 5 | No significant benefits | no off-target effect | > 30 | no off-target effect | > 30 | no off-target effect | > 30 | 675 | 5.72 | 12.27 |
